Results from paper PMC8249783, “A novel multikinase inhibitor SKLB‐YTH‐60 ameliorates inflammation and fibrosis in bleomycin‐induced lung fibrosis mouse models” (Cell Proliferation, 2021).
In brackets after ≈: the same amount, converted by molar mass. Where two headings read alike, the source gives them in different places.

Experiments:
[1] = Determination of thermodynamic solubility; format: physicochemical; settings: thermodynamic from solid, double testing
Method: Weigh about 1 mg of the test compound into 1.5 mL centrifuge tube and add 0.5 mL various solvents, sonicating for 5 minutes (if the compound is completely dissolved, then added again test compound until a little solid remains). Take the supernatant after centrifugation, diluting to a suitable concentration using and measuring absorbance values by UV spectrophotometer. Weigh 10 mg compound accurately of the test compound into 1.5 mL centrifuge tube and add 1.2 mL methanol solution to prepare 8.3 mg·mL^−1 mother solution. Take the above described mother liquor to prepare the solution in concentrations of 8.3, 4.2, 2.1, 1.0, 0.52, 0.26 mg·mL^−1 then measure absorbance value. With concentration c (mg·mL^−1) as the abscissa, absorbance A as the ordinate, mapping and fitting line to get the standard curve (The correlation coefficient should be greater than 0.998). Calculate solubility according to the standard curve of the linear equation.

[2] = system: lung MDSCs and macrophages; experiment: Flow cytometry of MDSCs and macrophages in lung tissue of BLM mice; format: in vivo, C57BL/6 mice; settings: 30 mg·kg^−1 i.p.
Method: Male C57BL/6 mice (8‐10 weeks old) were purchased from HFK Bioscience Co. Ltd. All animal experiments were permitted by the Institutional Animal Care and Treatment Committee of Sichuan University in China (New Permit Number: 20190524003). Lung fibrosis was induced using BLM treatment (2 mg·kg^−1). All C57BL/6 mice were divided into five groups (n = 10): a BLM + Nintedanib group (Nintedanib, 30 mg·kg^−1), a BLM + YTH‐60 group (YTH‐60, 15 mg·kg^−1 and 30 mg·kg^−1), a control group (Sham), and a bleomycin group (Vehicle). At the beginning, the mice were anaesthetized using 10% chloral hydrate, dissolved BLM with saline and administered intratracheally. To evaluate the preventive effect, the next day after BLM challenge, YTH‐60 and Nintedanib were administered intraperitoneally daily for 13 days (fibroproliferation) to the mice. All mice were sacrificed 24 hours after the last drug injection, the lungs and other organs were taken for the subsequent analysis. To test the therapeutic effect, after the 7th day of BLM treatment, mice were injected intraperitoneally with YTH‐60, Nintedanib and vehicle daily for 7 consecutive days (fibroproliferation).
We analysed the percentage of MDSCs and macrophages by Flow cytometry (FCM). ^22 Use scissors to cut approximately 30 mg of mouse lung tissues into small pieces and use 5 mL of collagenase‐IV with a concentration of 1 mg·mL^−1, digested at 37°C for at least 1 hour. Centrifuge at 400 g for 5 minutes and discard the supernatant. Then, add another 5 mL PBS to resuspend, after precipitation, taken the supernatant and mixed with the corresponding fluorochromium binding antibody, incubate for 30 minutes in the dark at 4°C (MDSCs with PE^−CD11b^−, FITC^−Gr1^− conjugated dual labelling and macrophages with PE^−F4/80^−, FITC^−CD11b^− conjugated dual labelling). The data were acquired with a FACS Canton II NovoCyte (ACEA).

[3] = parameters: method as in PMID 25474320; settings: 50 mg·kg^−1 oral administration; cited from earlier work

solubility at 5 min ([1]; organic solvent or mixture, Acetone, read-out: Solubility, Acetone): 9830 ± 420 µg/mL (≈ 18.2 mM) | solubility at 5 min ([1]; organic solvent or mixture, Acetonitrile, read-out: Solubility, Acetonitrile): 3520 ± 64 µg/mL (≈ 6.53 mM) | solubility at 5 min ([1]; organic solvent or mixture, Ethyl acetate, read-out: Solubility, Ethyl acetate): 9750 ± 350 µg/mL (≈ 18.1 mM) | solubility at 5 min ([1]; organic solvent or mixture, Ethyl alcohol, read-out: Solubility, Ethyl alcohol): 12500 ± 2200 µg/mL (≈ 23.1 mM) | solubility at 5 min ([1]; saline or isotonic, Normal saline, read-out: Solubility, Normal saline): 1930 ± 180 µg/mL (≈ 3.58 mM) | solubility at 5 min ([1]; Water, read-out: Solubility, Water): 280 ± 15 µg/mL (≈ 0.519 mM)
Compound: COC(=O)c1ccc2c(c1)NC(=O)/C2=C(\Nc1ccc(N(C)C(=O)CN2CCN(C)CC2)cc1)c1ccccc1 [Nintedanib, reference compound]
percentage of CD11b^+F4/80^+ cells (macrophages) in lung ([2]; day 14, BLM group 19.9%, sham 9.9%): 13.89% | percentage of CD11b^+Gr1^+ cells (MDSCs) in lung ([2]; day 14, BLM group 20.5%, sham 5.14%): 10.46% | mean bioavailability [3]: 11.9%
